Values quoted from earlier work in patent publication US20050176010A1, “Regulation of human transient receptor potential channel” (Bayer HealthCare AG, priority 2002, published 2005).

Columns and labels:
[1] = tested on: cold receptors; conditions: all tested patients; Geirsson, J. Urol. 1993
[2] = molecular target: mouse TRPM8 (Mus musculus, UniProt Q8R4D5); conditions: Peier et al., Cell 2002
[3] = molecular target: cold- and menthol-sensitive receptor (CMR1) (Rattus norvegicus, UniProt Q8R455); conditions: McKemy et al., Nature 2002
cold- and menthol-sensitive receptor (CMR1), sequence (Q8R455 whole entry): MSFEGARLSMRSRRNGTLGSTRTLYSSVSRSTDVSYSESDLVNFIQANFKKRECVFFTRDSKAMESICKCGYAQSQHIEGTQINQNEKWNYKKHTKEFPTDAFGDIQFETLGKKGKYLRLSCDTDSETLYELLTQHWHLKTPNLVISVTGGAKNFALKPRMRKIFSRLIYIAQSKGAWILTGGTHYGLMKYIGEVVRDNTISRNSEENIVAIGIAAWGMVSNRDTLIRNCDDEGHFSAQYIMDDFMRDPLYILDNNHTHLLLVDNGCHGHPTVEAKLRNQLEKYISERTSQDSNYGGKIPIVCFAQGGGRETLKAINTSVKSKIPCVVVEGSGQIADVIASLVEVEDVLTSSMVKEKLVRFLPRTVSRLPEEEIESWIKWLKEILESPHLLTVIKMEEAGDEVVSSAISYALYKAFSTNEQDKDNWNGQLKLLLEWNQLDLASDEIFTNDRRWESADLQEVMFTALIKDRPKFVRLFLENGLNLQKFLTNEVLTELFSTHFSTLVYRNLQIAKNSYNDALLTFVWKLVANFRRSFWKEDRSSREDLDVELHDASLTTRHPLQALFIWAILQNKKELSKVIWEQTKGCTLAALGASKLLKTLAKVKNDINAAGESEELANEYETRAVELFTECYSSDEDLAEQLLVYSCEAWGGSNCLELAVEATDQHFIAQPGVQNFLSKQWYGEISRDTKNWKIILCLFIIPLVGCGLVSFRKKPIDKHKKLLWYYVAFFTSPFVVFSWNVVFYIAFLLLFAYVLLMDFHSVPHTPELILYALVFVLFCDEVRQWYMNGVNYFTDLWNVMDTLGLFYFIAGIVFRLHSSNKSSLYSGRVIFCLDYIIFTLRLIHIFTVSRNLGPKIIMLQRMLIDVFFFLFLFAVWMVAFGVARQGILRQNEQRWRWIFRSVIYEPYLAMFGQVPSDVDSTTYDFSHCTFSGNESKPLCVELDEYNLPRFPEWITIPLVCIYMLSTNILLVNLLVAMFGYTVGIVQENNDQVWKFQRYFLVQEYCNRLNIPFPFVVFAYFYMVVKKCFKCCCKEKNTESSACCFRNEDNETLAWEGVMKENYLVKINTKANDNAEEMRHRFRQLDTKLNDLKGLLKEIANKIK

[4] = tested on: cold receptors; conditions: animals; Lindstrom and Mazieres 1991, Mazieres et al. 1998

mouse TRPM8, sequence (Q8R4D5 whole entry): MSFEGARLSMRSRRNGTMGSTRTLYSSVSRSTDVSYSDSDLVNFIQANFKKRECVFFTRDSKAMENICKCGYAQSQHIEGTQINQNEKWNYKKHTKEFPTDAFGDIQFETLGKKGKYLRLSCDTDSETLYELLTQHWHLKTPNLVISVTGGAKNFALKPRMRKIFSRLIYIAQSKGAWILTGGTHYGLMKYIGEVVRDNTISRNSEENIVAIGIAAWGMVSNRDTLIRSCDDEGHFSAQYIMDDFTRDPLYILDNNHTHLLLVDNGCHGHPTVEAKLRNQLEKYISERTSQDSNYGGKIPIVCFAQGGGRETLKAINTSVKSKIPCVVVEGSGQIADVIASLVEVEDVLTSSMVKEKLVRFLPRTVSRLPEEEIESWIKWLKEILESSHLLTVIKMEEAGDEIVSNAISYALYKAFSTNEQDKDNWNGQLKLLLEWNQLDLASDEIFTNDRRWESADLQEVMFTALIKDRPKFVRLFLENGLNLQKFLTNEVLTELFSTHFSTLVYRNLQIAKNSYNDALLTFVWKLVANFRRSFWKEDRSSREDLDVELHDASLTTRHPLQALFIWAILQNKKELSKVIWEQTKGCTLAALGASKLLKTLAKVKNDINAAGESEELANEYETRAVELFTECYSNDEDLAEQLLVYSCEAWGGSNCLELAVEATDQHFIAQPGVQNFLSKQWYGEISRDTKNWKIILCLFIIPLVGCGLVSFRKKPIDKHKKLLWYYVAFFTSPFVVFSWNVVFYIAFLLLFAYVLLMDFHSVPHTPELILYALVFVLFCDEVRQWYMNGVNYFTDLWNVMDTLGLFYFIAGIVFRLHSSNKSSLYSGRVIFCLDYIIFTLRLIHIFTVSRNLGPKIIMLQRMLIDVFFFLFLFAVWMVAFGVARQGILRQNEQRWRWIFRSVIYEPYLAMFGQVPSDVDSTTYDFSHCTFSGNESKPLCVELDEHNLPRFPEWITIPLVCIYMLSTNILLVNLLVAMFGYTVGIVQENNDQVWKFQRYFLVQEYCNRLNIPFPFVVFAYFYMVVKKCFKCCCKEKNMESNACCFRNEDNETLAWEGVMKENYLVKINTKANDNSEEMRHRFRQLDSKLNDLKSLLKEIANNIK

Q: Which results are given for `CC1CCC(C(C)C)C(O)C1` (stereo not shown) [menthol]?
A: threshold temperature of the cooling reflex [1]: shift of the threshold temperature of the cooling reflex towards a higher value; gating of the ion channel [2]: gated by cold stimuli and menthol; activation of the channel receptor CMR1 [3]: activated; temperature response curve of the bladder cooling reflex [4]: shifts the temperature response curve of the bladder cooling reflex towards higher temperatures
